Measurements: patent publication US20070142304A1, “Diphenylazetidinone derivatives possessing chloesterol absorption inhibitory activity” (priority 2003, published 2007)

Test system: 14C-cholesterol absorption
Experiment: In Vivo Testing of Cholesterol Absorption Inhibitors (A)
Settings: 5 μmol/kg by gavage, C57BL/6 female mice, procedure A
Experimental: In Vivo Testing of Cholesterol Absorption Inhibitors (A)
C57BL/6 female mice were maintained on regular chow diet and housed in individual cages to collect faeces. Mice were fasted for 3 hours and then gavaged with vehicle or compound. Half an hour later the mice were gavaged with radiolabelled cholesterol. Six hours after the ^14C-cholesterol gavage blood samples were taken via the tail and plasma prepared to determine how much cholesterol were absorbed. 24 hours after the gavage of ^14C-cholesterol the mice were bled and plasma were prepared for analysis. Faeces were collected for 24 hours to assess absorption efficiency.

Compound: CC(C)CC(NC(=O)COc1ccc(C2C(CCC(O)c3ccc(F)cc3)C(=O)N2c2ccc(F)cc2)cc1)C(=O)NC(Cc1ccccc1)C(=O)O [Example 3, 1-(4-Fluorophenyl)-3-(R)-[3-(4-fluorophenyl)-3-hydroxypropyl]-4-(S)-{4-[N-((R)-1-{N-[1-(R)-(carboxy)-2-(phenyl)ethyl]carbamoyl}-3-methylbutyl)carbamoylmethoxy]phenyl}azetidin-2-one]
- inhibition of 14C-cholesterol absorption: 75%

Compound: O=C(COc1ccc(C2C(CCC(O)c3ccc(F)cc3)C(=O)N2c2ccc(F)cc2)cc1)NC(Cc1ccccc1)C(=O)NC(CO)C(=O)O [Example 4, 1-(4-Fluorophenyl)-3-(R)-[3-(4-fluorophenyl)-3-hydroxypropyl]-4-(S)-[4-(N-{1-(R)-[N-(1-(S)-carboxy-2-hydroxyethyl)carbamoyl]-2-phenylethyl}carbamoylmethoxy)phenyl]azetidin-2-one]
- inhibition of 14C-cholesterol absorption: 58%
